In patent publication US11753397B2, “Cereblon binders for the degradation of ikaros” (C4 Therapeutics, Inc., priority 2018, dated 2023):

Tested on: NCIH929.1 cells
Test: Cell viability assay (CellTiter-Glo 2.0, ATP quantification)
Assay type: cell-based
Conditions: NCIH929.1 cell viability, CellTiter-Glo 2.0, 96 hr incubation, top concentration 1 μM
In short: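 Read-out is CellTiter-Glo 2.0 luminescence (ATP), after 96 h compound exposure at 37 °C, with a day-0 plate giving the CT0 baseline. Duplicate 10-point half-log titration from 1 μM applied to 750 cells/well in RPMI, 10% FBS, 0.05 mM 2-mercaptoethanol.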

SMILES | GI50
COCC(=O)N1CCC(C(=O)N2CCC(n3cc(CNc4cccc5c4C(=O)N(C4CCC(=O)NC4=O)C5=O)cn3)CC2)CC1 (stereo not shown) [Compound 111, 2-(2,6-dioxopiperidin-3-yl)-4-(((1-(1-(1-(2-methoxyacetyl)piperidine-4-carbonyl)piperidin-4-yl)-1H-pyrazol-4-yl)methyl)amino)isoindoline-1,3-dione] | < 100 nM
O=C1CCC(N2C(=O)c3cccc(NCc4cnn(C5CCN(C(=O)C6CCN(C(=O)C7CCC7)CC6)CC5)c4)c3C2=O)C(=O)N1 (stereo not shown) [Compound 112, 4-(((1-(1-(1-(cyclobutanecarbonyl)piperidine-4-carbonyl)piperidin-4-yl)-1H-pyrazol-4-yl)methyl)amino)-2-(2,6-dioxopiperidin-3-yl)isoindoline-1,3-dione] | < 100 nM
O=C1CCC(N2C(=O)c3cccc(NCc4cnn(C5CCN(C(=O)C6CCN(C(=O)Cc7ccccc7)CC6)CC5)c4)c3C2=O)C(=O)N1 (stereo not shown) [Compound 113, 2-(2,6-dioxopiperidin-3-yl)-4-(((1-(1-(1-(2-phenylacetyl)piperidine-4-carbonyl)piperidin-4-yl)-1H-pyrazol-4-yl)methyl)amino)isoindoline-1,3-dione] | < 100 nM
CCc1ccc2c(CC(=O)N3CCC(n4cc(CNc5cccc6c5C(=O)N(C5CCC(=O)NC5=O)C6=O)cn4)CC3)coc2c1 (stereo not shown) [Compound 114, 2-(2,6-dioxoopiperidin-3-yl)-4-(((1-(1-(2-(6-ethylbenzofuran-3-yl)acetyl)piperidin-4-yl)-1H-pyrazol-4-yl)methyl)amino)isoindoline-1,3-dione] | < 100 nM
Cc1cccc(-c2nc(CC(=O)N3CCC(n4cc(CNc5cccc6c5C(=O)N(C5CCC(=O)NC5=O)C6=O)cn4)CC3)c(C)o2)c1 (stereo not shown) [Compound 115, 2-(2,6-dioxopiperidin-3-yl)-4-(((1-(1-(2-(5-methyl-2-(m-tolyl)oxazol-4-yl)acetyl)piperidin-4-yl)-1H-pyrazol-4-yl)methyl)amino)isoindoline-1,3-dione] | < 100 nM
O=C1CCC(N2C(=O)c3cccc(NCc4cnn(C5CCN(C(=O)Cc6coc(-c7ccccc7)n6)CC5)c4)c3C2=O)C(=O)N1 (stereo not shown) [Compound 116, 2-(2,6-dioxopiperidin-3-yl)-4-(((1-(1-(2-(2-phenyloxazol-4-yl)acetyl)piperidin-4-yl)-1H-pyrazol-4-yl)methyl)amino)isoindoline-1,3-dione] | < 100 nM
O=C1CCC(N2C(=O)c3cccc(NCc4cnn(C5CCN(C(=O)CC6CCC(c7ccccc7)CC6)CC5)c4)c3C2=O)C(=O)N1 (stereo not shown) [Compound 117, 2-(2,6-dioxopiperidin-3-yl)-4-(((1-(1-(2-(4-phenylcyclohexyl)acetyl)piperidin-4-yl)-1H-pyrazol-4-yl)methyl)amino)isoindoline-1,3-dione] | < 100 nM
Cc1ccc(N2CCC(C(=O)N3CCC(n4cc(CNc5cccc6c5C(=O)N(C5CCC(=O)NC5=O)C6=O)cn4)CC3)CC2)nc1 (stereo not shown) [Compound 118, 2-(2,6-dioxopiperidin-3-yl)-4-(((1-(1-(1-(5-methylpyridin-2-yl)piperidine-4-carbonyl)piperidin-4-yl)-1H-pyrazol-4-yl)methyl)amino)isoindoline-1,3-dione] | < 1 nM
O=C1CCC(N2C(=O)c3cccc(NCc4cnn(C5CCN(C(=O)c6cccc(Cn7cccn7)c6)CC5)c4)c3C2=O)C(=O)N1 (stereo not shown) [Compound 119, 4-(((1-(1-(3-((1H-pyrazol-1-yl)methyl)benzoyl)piperidin-4-yl)-1H-pyrazol-4-yl)methyl)amino)-2-(2,6-dioxopiperidin-3-yl)isoindoline-1,3-dione] | < 100 nM
O=C1CCC(N2C(=O)c3cccc(NCc4cnn(C5CCN(C(=O)Cc6cnn(-c7ccccc7)c6)CC5)c4)c3C2=O)C(=O)N1 (stereo not shown) [Compound 120, 2-(2,6-dioxopiperidin-3-yl)-4-(((1-(1-(2-(1-phenyl-1H-pyrazol-4-yl)acetyl)piperidin-4-yl)-1H-pyrazol-4-yl)methyl)amino)isoindoline-1,3-dione] | < 100 nM
